ChEMBL document CHEMBL1201862, “PubChem BioAssay data set” (2004)
The source made the active and inactive calls.

Assays:
[1] = tested on: H9c2; assay: cells; assay type: functional, cell-based; details: Rattus norvegicus, H9c2, Myocardium;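 also: confirmatory concentration-response retest of ultra-high-throughput screening hits for modulation of myocardial damage; cell death induced by hydrogen peroxide oxidative stress; compound pretreatment for 60 min then peroxide exposure for 2 h; potency is for protecting the cells against peroxide damage rather than for killing them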
[2] = target: T1, Probable nicotinate-nucleotide adenylyltransferase (Staphylococcus aureus (strain N315), UniProt P65502); assay type: functional, Staphylococcus aureus subsp. aureus N315;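 as to IC50 Mean: confirmatory dose-response retesting of NadD inhibitor hits first found in an ultra-high-throughput screen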
T1 sequence (P65502 whole entry): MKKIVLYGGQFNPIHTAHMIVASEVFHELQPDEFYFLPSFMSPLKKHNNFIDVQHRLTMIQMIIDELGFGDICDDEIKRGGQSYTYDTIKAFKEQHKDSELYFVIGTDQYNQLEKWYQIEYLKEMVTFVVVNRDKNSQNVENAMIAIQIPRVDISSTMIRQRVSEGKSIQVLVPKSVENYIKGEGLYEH

[3] = target: T1, Probable nicotinate-nucleotide adenylyltransferase; assay type: functional, Staphylococcus aureus subsp. aureus N315; details: read-out: IC50_Mean
[4] = target: Paired box protein Pax-8 (Homo sapiens, UniProt Q06710); assay: PAX8 transcriptional activity inhibition in RMG-I – RMG-I cells, luciferase, cherry-pick, dose response (AID 687027); assay type: functional, cell-based;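 also: luciferase reporter driven by Pax8 target thyroperoxidase promoter measured by SteadyGlo luminescence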
Chain of Paired box protein Pax-8 (Q06710 whole entry): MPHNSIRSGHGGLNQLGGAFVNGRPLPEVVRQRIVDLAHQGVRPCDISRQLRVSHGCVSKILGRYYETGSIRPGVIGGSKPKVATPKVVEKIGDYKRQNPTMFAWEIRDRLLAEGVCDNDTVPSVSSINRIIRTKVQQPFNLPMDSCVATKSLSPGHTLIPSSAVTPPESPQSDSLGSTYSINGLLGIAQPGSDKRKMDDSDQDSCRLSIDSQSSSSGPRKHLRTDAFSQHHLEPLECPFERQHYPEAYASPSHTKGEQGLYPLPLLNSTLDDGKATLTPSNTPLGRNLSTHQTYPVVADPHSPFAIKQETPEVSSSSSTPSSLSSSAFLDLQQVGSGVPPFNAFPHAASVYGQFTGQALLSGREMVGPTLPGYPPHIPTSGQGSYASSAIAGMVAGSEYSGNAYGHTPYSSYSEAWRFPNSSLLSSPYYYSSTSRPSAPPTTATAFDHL

[5] = OVCAR-3 cell viability loss – plate reader, dry powder samples, PAX8 inhibitor project, dose response (AID 743044); assay type: functional, cell-based
[6] = IGROV1 cell killing – plate reader, dry powder samples, PAX8 inhibitor project, dose response (AID 743043); assay type: functional, cell-based; details: IGROV-1
[7] = OVCAR8 cell viability loss – plate reader, dry powder samples, PAX8 project, dose response (AID 743197); assay type: functional, cell-based; details: OVCAR-8
[8] = activation of miR-122 Renilla sensor silencing – cell-based, Huh7 psiCHECK-miR122, Renilla luciferase, cherry-picked, dose response (AID 651956); assay type: functional;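 also: huh7 hepatoma cells stably carrying a psiCHECK-2 miR-122 sensor plasmid; renilla luciferase signal reporting endogenous miR-122 activity after 48 h compound exposure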
[9] = general mammalian cell viability loss – inhibitor set, cherry-pick, set 2, cytotoxicity control for miR-122 modulator project, dose response (AID 720697); assay type: functional, cell-based
[10] = tested on: BJ; assay: BJ-TERT fibroblast viability loss – cell-based, RAS-independent, luminescence, dose response (AID 1933); assay type: functional; details: Homo sapiens
[11] = tested on: BJ; assay: cells; assay type: functional, cell-based; details: Homo sapiens
[12] = Trypanosoma cruzi growth suppression in host cells – NIH3T3 host cells, beta-gal luminescence, confirmation (AID 2044); assay type: functional, cell-based;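 also: intracellular parasites grown in NIH/3T3 mouse fibroblasts as host cells; luminescent beta-galactosidase reporter signal from transgenic T. cruzi replicating inside host cells; inhibitors lower the luminescence signal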
[13] = NIH3T3 cell viability loss – ATP luminescence, mouse fibroblasts, counter-screen, dose response (AID 2010); assay type: functional, cell-based;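 also: cells exposed to compound for about 90 hours before reading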
[14] = tested on: BJ; assay: BJ-TERT-LT-ST fibroblast viability loss – cell-based, RAS-independent, luminescence, dose response (AID 1935); assay type: functional; details: Homo sapiens;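 also: BJ fibroblasts immortalized with TERT plus LT and ST oncogenes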
[15] = DRD fibroblast viability loss – cell-based, non-viral oncogenic, luminescence, dose response (AID 1934); assay type: functional; details: Homo sapiens
[16] = target: T2, Replicative DNA helicase DnaB (Mycobacterium tuberculosis, UniProt P9WMR3); assay: DnaB intein splicing inhibitors, dose response, biochemical, cell-free fluorescence (AID 449749); assay type: functional
T2 sequence (P9WMR3 whole entry): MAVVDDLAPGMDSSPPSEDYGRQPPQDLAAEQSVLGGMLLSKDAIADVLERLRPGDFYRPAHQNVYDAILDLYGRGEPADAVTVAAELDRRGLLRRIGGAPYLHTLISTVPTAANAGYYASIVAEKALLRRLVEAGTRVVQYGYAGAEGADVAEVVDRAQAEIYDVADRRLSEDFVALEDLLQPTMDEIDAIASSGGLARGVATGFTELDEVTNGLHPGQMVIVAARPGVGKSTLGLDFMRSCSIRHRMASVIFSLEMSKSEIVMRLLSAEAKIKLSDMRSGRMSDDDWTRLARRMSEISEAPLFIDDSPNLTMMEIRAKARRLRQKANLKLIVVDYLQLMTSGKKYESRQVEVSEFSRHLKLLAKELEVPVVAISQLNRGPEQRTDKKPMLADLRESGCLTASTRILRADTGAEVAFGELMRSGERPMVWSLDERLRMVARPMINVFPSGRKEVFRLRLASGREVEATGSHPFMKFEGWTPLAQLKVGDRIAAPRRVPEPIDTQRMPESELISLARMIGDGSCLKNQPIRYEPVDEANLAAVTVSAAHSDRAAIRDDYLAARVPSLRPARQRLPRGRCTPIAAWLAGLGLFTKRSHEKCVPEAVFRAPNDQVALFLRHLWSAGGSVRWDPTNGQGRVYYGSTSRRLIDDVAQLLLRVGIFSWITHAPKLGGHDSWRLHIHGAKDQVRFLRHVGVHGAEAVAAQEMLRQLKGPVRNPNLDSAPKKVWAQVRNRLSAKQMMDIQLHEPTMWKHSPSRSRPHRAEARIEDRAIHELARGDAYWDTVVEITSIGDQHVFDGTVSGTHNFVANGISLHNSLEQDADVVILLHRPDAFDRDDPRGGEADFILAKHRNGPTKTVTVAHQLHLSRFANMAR

[17] = target: T3, Protein RecA (Mycobacterium tuberculosis, UniProt P9WHJ3); assay: Fluorescence Cell-Free Homogeneous Dose Retest to Identify Inhibitors of RecA-Intein Splicing Activity. [Related pubchem assays (depositor defined):AID2097, AID2223, AID489010, AID492950]; assay type: functional
T3 sequence (P9WHJ3 whole entry): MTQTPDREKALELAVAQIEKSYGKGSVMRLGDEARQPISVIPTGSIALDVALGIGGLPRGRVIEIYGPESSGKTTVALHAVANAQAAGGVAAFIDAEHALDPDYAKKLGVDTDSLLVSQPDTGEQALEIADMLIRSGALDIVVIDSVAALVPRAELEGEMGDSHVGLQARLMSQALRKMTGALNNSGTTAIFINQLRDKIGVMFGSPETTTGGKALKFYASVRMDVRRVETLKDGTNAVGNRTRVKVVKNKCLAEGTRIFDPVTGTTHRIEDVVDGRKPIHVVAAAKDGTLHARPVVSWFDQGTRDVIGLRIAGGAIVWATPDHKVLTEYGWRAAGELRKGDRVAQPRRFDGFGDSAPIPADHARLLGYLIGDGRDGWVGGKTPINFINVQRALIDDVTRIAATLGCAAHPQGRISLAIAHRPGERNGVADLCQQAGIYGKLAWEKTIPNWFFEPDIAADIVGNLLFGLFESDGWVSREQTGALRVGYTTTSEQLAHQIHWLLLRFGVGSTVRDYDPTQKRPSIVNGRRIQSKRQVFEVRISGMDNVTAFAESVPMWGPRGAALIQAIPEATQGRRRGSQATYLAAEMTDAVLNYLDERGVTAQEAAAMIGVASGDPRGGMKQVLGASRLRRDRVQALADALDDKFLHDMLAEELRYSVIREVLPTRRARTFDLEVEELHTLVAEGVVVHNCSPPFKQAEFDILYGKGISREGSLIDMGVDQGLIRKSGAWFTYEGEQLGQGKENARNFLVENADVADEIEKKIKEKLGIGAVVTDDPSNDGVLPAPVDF

[18] = general cell-killing toxicity readout – plate reader, dry powder samples, cytotoxicity control for PAX8 inhibitor project, dose response (AID 743021); assay type: functional, cell-based
[19] = target: T4, Small ubiquitin-related modifier 1 (Homo sapiens, UniProt P63165); assay: SUMO1 protein interaction blockers, potency – biochemical, fluorescence polarization, uHTS hits, dose response (AID 624382); assay type: functional; details: read-out: IC50_Mean
T4 sequence (P63165 whole entry): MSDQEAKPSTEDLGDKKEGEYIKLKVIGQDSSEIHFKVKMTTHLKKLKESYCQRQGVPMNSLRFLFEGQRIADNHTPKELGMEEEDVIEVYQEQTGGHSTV

[20] = target: T4, Small ubiquitin-related modifier 1; assay: SUMO1 protein-protein binding blockers, potency – biochemical, FRET, dose response (AID 624383); assay type: functional; details: read-out: IC50_Mean
[21] = target: T5, RNA-binding protein pos-1 (Caenorhabditis elegans, UniProt G5EF15); assay: disruptors of C. elegans POS-1 RNA interaction – biochemical, fluorescence polarization, dose response (AID 1964);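 also: purified POS-1 fused to maltose binding protein made in E. coli; potency of compounds blocking POS-1 binding to fluorescent RNA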
T5 sequence (G5EF15 whole entry): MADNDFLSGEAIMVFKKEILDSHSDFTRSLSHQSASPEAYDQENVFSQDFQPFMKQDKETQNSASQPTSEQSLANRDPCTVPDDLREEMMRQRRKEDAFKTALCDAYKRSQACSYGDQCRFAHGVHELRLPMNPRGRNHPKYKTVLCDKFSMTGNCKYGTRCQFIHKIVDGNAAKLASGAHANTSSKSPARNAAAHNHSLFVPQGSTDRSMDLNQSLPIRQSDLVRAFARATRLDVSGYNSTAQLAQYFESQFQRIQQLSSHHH

[22] = tested on: Streptococcus sp. 'group A'; assay: Streptococcus pyogenes SK(-)GAS viability under kanamycin – luminescence, BacTiterGlo, confirmation, counter-screen for streptokinase expression inhibitor project, dose response (AID 1900); assay type: functional, organism-based
[23] = target: T6, Zinc finger protein mex-5 (Caenorhabditis elegans, UniProt Q9XUB2); assay: potency of MEX-5 RNA-binding blockers – biochemical, C. elegans, fluorescence polarization, dose response (AID 1960)
T6 sequence (Q9XUB2 whole entry): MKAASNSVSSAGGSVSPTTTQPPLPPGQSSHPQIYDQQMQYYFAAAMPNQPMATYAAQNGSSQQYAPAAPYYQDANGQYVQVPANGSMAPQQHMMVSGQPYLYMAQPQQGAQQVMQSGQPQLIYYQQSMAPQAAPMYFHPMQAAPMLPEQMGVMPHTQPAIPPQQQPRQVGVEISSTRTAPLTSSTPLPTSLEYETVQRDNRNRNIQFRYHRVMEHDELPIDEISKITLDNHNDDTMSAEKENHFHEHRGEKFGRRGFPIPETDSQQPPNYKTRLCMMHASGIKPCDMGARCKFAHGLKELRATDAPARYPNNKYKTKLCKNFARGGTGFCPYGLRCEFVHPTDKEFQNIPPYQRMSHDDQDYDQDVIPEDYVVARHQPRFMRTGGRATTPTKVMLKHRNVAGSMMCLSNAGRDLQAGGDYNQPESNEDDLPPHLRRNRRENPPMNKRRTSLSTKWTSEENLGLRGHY

[24] = target: T7, Streptokinase A (Streptococcus pyogenes serotype M1, UniProt P10520); assay: viability-normalized secreted streptokinase activity reduction – plasminogen activation absorbance, OD405, dose response (AID 1914); assay type: functional, Streptococcus pyogenes M1 GAS;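 also: secreted streptokinase activity via plasminogen activation per viability signal from cell pellet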
T7 sequence (P10520 whole entry): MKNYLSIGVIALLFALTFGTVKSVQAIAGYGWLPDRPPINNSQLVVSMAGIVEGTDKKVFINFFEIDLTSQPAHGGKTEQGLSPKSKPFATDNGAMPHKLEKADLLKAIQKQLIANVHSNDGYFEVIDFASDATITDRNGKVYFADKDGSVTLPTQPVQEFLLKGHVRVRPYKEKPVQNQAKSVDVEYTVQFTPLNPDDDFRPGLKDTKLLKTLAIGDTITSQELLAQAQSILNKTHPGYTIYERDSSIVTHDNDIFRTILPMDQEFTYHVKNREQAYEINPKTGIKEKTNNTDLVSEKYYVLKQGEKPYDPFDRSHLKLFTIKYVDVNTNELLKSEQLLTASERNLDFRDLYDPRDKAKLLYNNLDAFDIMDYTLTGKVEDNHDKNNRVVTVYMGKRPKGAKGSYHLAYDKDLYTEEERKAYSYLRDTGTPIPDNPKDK

[25] = tested on: Streptococcus; assay: GAS UMAA2166 growth inhibition – luminescence, BacTiterGlo, counter-screen for streptokinase expression inhibitor project, dose response (AID 1915); assay type: functional, organism-based;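 also: potency for reduction of bacterial viability or growth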
[26] = target: T8, Rac GTPase-activating protein 1 (Homo sapiens, UniProt Q9H0H5); assay: blockers of MgcRacGAP-driven Rac1 GTP hydrolysis – biochemical, ADP Hunter fluorescence, primary and confirmatory, confirmation (AID 624330); assay type: functional
T8 sequence (Q9H0H5 whole entry): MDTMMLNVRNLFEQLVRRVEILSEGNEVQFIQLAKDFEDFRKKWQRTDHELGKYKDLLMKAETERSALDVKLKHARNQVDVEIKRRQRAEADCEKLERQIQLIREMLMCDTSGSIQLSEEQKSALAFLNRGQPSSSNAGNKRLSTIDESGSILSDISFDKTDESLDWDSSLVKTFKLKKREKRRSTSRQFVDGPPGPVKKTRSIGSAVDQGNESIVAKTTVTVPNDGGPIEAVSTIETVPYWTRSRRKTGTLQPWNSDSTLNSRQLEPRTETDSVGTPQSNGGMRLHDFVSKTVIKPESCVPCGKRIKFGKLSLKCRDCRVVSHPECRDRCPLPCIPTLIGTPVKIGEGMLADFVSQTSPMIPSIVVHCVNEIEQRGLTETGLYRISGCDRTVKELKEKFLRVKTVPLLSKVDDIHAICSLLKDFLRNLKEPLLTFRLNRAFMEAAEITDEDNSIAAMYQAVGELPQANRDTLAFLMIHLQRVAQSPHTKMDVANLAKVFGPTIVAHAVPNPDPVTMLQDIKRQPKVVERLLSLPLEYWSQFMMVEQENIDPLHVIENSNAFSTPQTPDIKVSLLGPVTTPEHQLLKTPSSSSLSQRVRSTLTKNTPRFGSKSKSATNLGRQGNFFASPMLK

Compound: COc1cccc(Nc2nc(-c3sc(NC(=O)c4ccco4)nc3C)cs2)c1
- IC50 [1]: > 79 µM (inactive)
- IC50 [2]: 13.5 µM (active)
- IC50 [3]: 33.2 µM (active)

Compound: C[C@@H]1CCCCO[C@@H](CN(C)C(=O)Nc2ccc(C(F)(F)F)cc2)[C@H](C)CN([C@H](C)CO)C(=O)c2cc(NS(=O)(=O)c3cccs3)ccc2O1
- AC50 [4]: 8.64 µM (active)
- AC50 [5]: 20 µM (active)
- AC50 [6]: 45.5 µM (active)
- AC50 [7]: 39.4 µM (active)

Compound: COc1ccc(-c2ccc3c(c2)O[C@H](CN(C)C(=O)Nc2ccccc2F)[C@H](C)CN([C@@H](C)CO)S3(=O)=O)cc1
- AC50 [8]: 9.32 µM (active)
- AC50 [9]: 0.5 µM (active)

Compound: CC(C)N(CC(=O)Nc1ccc(Cl)cc1C(F)(F)F)C(=O)CCl
- EC50 [10]: 6.85 µM (inconclusive)
- EC50 [11]: 16.9 µM (active)
- EC50 [12]: 3.38 µM (active)
- EC50 [13]: 11.9 µM (active)
- EC50 [14]: > 150 µM (inconclusive)
- EC50 [15]: 6.62 µM (active)
- AC50 [16]: < 0.018 µM (inconclusive)
- EC50 [17]: 6.09 µM (active)
- AC50 [4]: 5.06 µM (active)
- AC50 [18]: 10 µM (active)

Compound: CNC(=O)C[C@H]1CC[C@@H]2[C@H](COc3ccc(NS(=O)(=O)c4ccc(F)cc4)cc3C(=O)N2C)O1
- AC50 [8]: 47.9 µM (active)

Compound: O=C(N/N=C/c1cccnc1)c1cccc(NC(=O)c2ccc(Cl)cc2)c1
- IC50 [19]: > 66.6 µM (inactive)
- IC50 [20]: 5.33 µM (active)

Compound: Cc1cccc2sc(NNC(=O)c3cc(=O)c4ccccc4o3)nc12
- EC50 [21]: > 300 µM (not active)
- EC50 [22]: 0.449 µM (active)
- EC50 [23]: > 300 µM (not active)
- EC50 [24]: > 150 µM (not active)
- EC50 [25]: 7.43 µM (active)
- IC50 [2]: 5.9 µM (active)
- IC50 [3]: 35.2 µM (active)
- IC50 [26]: 94 µM (active)

Compound: COc1ccc(CN(C)C[C@H]2OCCCC[C@@H](C)Oc3ccc(NC(=O)Nc4ccc(F)cc4)cc3C(=O)N([C@@H](C)CO)C[C@@H]2C)cc1
- AC50 [4]: 21.7 µM (active)
- AC50 [5]: 33.8 µM (active)
- AC50 [18]: 51.9 µM (active)
- AC50 [7]: > 70 µM (inactive)
